System: SEM cells
Experiment: cell viability relative to DMSO control; higher = less cytotoxic
Details: 48 h
Method in brief: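 Viability was expressed as a per-plate percentage of DMSO wells, with cell-free wells as background. Leukemia cells (NOMO1 or SEM at 500 cells/well, P12-Ichikawa at 1000 cells/well) were adapted for at least four passages in each medium and seeded in 1536-well plates (5 μl). Library compounds in DMSO were pin-dosed over an 11-point threefold series from 47 μM to 0.79 nM, and CellTiter-Glo One luminescence was read after 48 h at 37°C.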

[1] = RPMI 5 mM glucose + 10% FBS, 0.000781 µM
[2] = RPMI 5 mM glucose + 10% FBS, 0.00234 µM
[3] = RPMI 5 mM glucose + 10% FBS, 0.00702 µM
[4] = RPMI 5 mM glucose + 10% FBS, 0.0211 µM
[5] = RPMI 5 mM glucose + 10% FBS, 0.0632 µM
[6] = RPMI 5 mM glucose + 10% FBS, 0.19 µM
[7] = RPMI 5 mM glucose + 10% FBS, 0.569 µM
[8] = RPMI 5 mM glucose + 10% FBS, 1.71 µM
[9] = RPMI 5 mM glucose + 10% FBS, 5.12 µM
[10] = RPMI 5 mM glucose + 10% FBS, 15.4 µM
[11] = RPMI 5 mM glucose + 10% FBS, 46.1 µM
[12] = RPMI 5 mM glucose + 10% dialyzed FBS, 0.000781 µM
[13] = RPMI 5 mM glucose + 10% dialyzed FBS, 0.00234 µM
[14] = RPMI 5 mM glucose + 10% dialyzed FBS, 0.00702 µM
[15] = RPMI 5 mM glucose + 10% dialyzed FBS, 0.0211 µM
[16] = RPMI 5 mM glucose + 10% dialyzed FBS, 0.0632 µM
[17] = RPMI 5 mM glucose + 10% dialyzed FBS, 0.19 µM
[18] = RPMI 5 mM glucose + 10% dialyzed FBS, 0.569 µM
[19] = RPMI 5 mM glucose + 10% dialyzed FBS, 1.71 µM
[20] = RPMI 5 mM glucose + 10% dialyzed FBS, 5.12 µM
[21] = RPMI 5 mM glucose + 10% dialyzed FBS, 15.4 µM
[22] = RPMI 5 mM glucose + 10% dialyzed FBS, 46.1 µM
[23] = HPLM + 10% dialyzed FBS, 0.000781 µM
[24] = HPLM + 10% dialyzed FBS, 0.00234 µM
[25] = HPLM + 10% dialyzed FBS, 0.00702 µM
[26] = HPLM + 10% dialyzed FBS, 0.0211 µM
[27] = HPLM + 10% dialyzed FBS, 0.0632 µM
[28] = HPLM + 10% dialyzed FBS, 0.19 µM
[29] = HPLM + 10% dialyzed FBS, 0.569 µM
[30] = HPLM + 10% dialyzed FBS, 1.71 µM
[31] = HPLM + 10% dialyzed FBS, 5.12 µM
[32] = HPLM + 10% dialyzed FBS, 15.4 µM
[33] = HPLM + 10% dialyzed FBS, 46.1 µM

CCCCc1oc2ccccc2c1C(=O)c1cc(I)c(OCCN(CC)CC)c(I)c1 was tested, and the cell viability [1] was 108%, the cell viability [2] was 116% and the cell viability [3] was 132%. It also gave a cell viability [4] of 136%, a cell viability [5] of 115% and a cell viability [6] of 113%. It also gave a cell viability [7] of 136%, a cell viability [8] of 116% and a cell viability [9] of 119%. The cell viability [10] was 107% and the cell viability [11] was 97.6%.
In the case of CCCCc1ccc(N[S+](=O)([O-])c2ccc(C)c(C(=O)N3CCN(c4cccc(C)c4C)CC3)c2)cc1, the cell viability [1] is reported as 120%, the cell viability [2] is reported as 124% and the cell viability [3] is reported as 138%. It also gave a cell viability [4] of 17.1%, a cell viability [5] of 129% and a cell viability [6] of 118%. The cell viability [7] was 137%, the cell viability [8] was 126% and the cell viability [9] was 119%. For the same compound, the cell viability [10] was 106%, the cell viability [11] was 98.2% and the cell viability [12] was 117%. For the same compound, the cell viability [13] was 96.2%, the cell viability [14] was 127% and the cell viability [15] was 21.2%. For the same compound, the cell viability [16] was 118%, the cell viability [17] was 118% and the cell viability [18] was 106%. For the same compound, the cell viability [19] was 117%, the cell viability [20] was 107% and the cell viability [21] was 117%. The cell viability [22] was 84.9%.
With CC(C)C1=N[N](C\2=C1C(=O)N\C(=N2)CC3=CC=C(OCCO)C=C3)C4=C(Cl)C=CC=C4Cl the cell viability [23] was 95.1%, the cell viability [24] was 125% and the cell viability [25] was 108%. The cell viability [26] was 109%, the cell viability [27] was 95.9% and the cell viability [28] was 16.8%. The cell viability [29] was 8.67%, the cell viability [30] was 6.16% and the cell viability [31] was 5.35%. For the same compound, the cell viability [32] was 4.68%, the cell viability [33] was 3.44% and the cell viability [1] was 52.1%. For the same compound, the cell viability [2] was 98.6%, the cell viability [3] was 85.3% and the cell viability [4] was 75.8%. For the same compound, the cell viability [5] was 76.5%, the cell viability [6] was 13.8% and the cell viability [7] was 6.73%. The cell viability [8] was 4.7%, the cell viability [9] was 4.18% and the cell viability [10] was 4.05%. For the same compound, the cell viability [11] was 2.06%, the cell viability [12] was 90.4% and the cell viability [13] was 102%. The cell viability [14] was 100%, the cell viability [15] was 109% and the cell viability [16] was 107%. It also gave a cell viability [17] of 34.2%, a cell viability [18] of 8.73% and a cell viability [19] of 6.73%. The cell viability [20] was 5.07%, the cell viability [21] was 4.3% and the cell viability [22] was 3.59%.
With COc1ccc2c(c1)CC[C@@H](CN(C)CC(=O)O)[C@H]2c1ccccc1 the cell viability [1] was 120%, the cell viability [2] was 122% and the cell viability [3] was 126%. For the same compound, the cell viability [4] was 109%, the cell viability [5] was 124% and the cell viability [6] was 104%. For the same compound, the cell viability [7] was 110%, the cell viability [8] was 79.8% and the cell viability [9] was 31%. For the same compound, the cell viability [10] was 20.9%, the cell viability [11] was 16% and the cell viability [12] was 94.9%. It also gave a cell viability [13] of 100%, a cell viability [14] of 101% and a cell viability [15] of 110%. The cell viability [16] was 109%, the cell viability [17] was 115% and the cell viability [18] was 115%. The cell viability [19] was 91.3%, the cell viability [20] was 41.5% and the cell viability [21] was 24.8%. For the same compound, the cell viability [22] was 19.9%.
For CCCC[N+]1(C)[C@@H]2CC(OC(=O)[C@H](CO)c3ccccc3)C[C@H]1[C@@H]1O[C@@H]12 (some centres undefined), the cell viability [23] was 112%, the cell viability [24] was 113% and the cell viability [25] was 120%. It also gave a cell viability [26] of 125%, a cell viability [27] of 118% and a cell viability [28] of 126%. The cell viability [29] was 110%, the cell viability [30] was 127% and the cell viability [31] was 109%. It also gave a cell viability [32] of 131% and a cell viability [33] of 123%.
